Counter-ions that a name gives are not always drawn.
What was measured:
[1] = target: T1, p-tau (Homo sapiens, UniProt P10636); assay: p-tau aggregation assay, dose response (ThS fluorescence, inducer-free); type: biochemical; conditions: 6 µM p-tau, ThS fluorescence
T1 construct: made in house; host or cells: E. coli (PIMAX system)
Experimental: Aggregation of 6-µM p-tau under the influence of 30 µM of each of the library compounds or a DMSO vehicle control was monitored in 384-well plates every 10 min for ThS fluorescence changes over 16 h. To assess the quality of the high-throughput p-tau aggregation reactions, we used the T0 and T16hr ThS fluorescence units of no-compound control reactions to calculate the Z′-factor and coefficient of variation (CV), two commonly used criteria for robustness of high-throughput screens (HTS)[62]. A Z′-factor greater than 0.5 and CV smaller than 10% indicate robustness. […] To identify compounds with significant p-tau aggregation modulation, the net change of ThS fluorescence was calculated from all reactions (see Supplemental Table 1 for complete listing).
Aggregation of 6 µM of p-tau was done in the presence of the indicated concentrations of either compound. […] P-tau aggregation reactions with the C291S C322S (C/S) mutant p-tau were done in the presence of the indicated amounts of either compound. Shown are net changes of ThS over 16 h.
Given the tremendous socioeconomical burdens of AD, measures that prevent or delay the onset of the devastating neurodegeneration of AD will be highly impactful. If hyperphosphorylated tau-inflicted neuronal damages are an underpinning for AD and other tauopathies, enhancers of p-tau aggregation (PTAEs) may be risk factors for neurodegeneration. […] Prednicarbate is a synthetic corticosteroid for dermatological use, and carmofur (1-hexylcarbamoyl-5-fluorouracil) is an anti-neoplastic pyrimidine analogue. […] BZDs are among the most widely prescribed medication, in particular to the elderly, for depression and insomnia[70],[71]. We hypothesized that certain BZDs acted as a PTAE to potentiate p-tau aggregation and cytotoxicity. […] We therefore randomly picked nine prescription BZDs for p-tau aggregation assessment (Fig. 6; see Supplemental Fig. 5 for chemical structures). To 6-µM p-tau aggregation reactions, increasing doses of each of these BZDs were added.
Prednicarbate, a synthetic steroid, served as a PTAE control (yellow bars).
The aggregation assays over the course of this project have been done with multi-plate readers from different sources.
A common mix of 6 µM p-tau, 20 mM Tris pH 7.4, 1 mM DTT, and 20 µM ThS was assembled and dispensed to 384-well low-volume plates (10 µl per well) using BioTek EL406 Washer, followed by the addition of 150 nl of the Prestwick Library compounds (final concentration of 30 µM per well) or DMSO in a Beckman Coulter Biomek FX^P workstation. Each plate was covered with an Optical Adhesive Film and incubated at 37 °C for about 10 min. ThS fluorescence was measured every 10 min at 440/490 nm for 16 h by Biotek Synergy Neo Plate Reader. […] The real-time kinetics of ThS signals were collected using Gen5 software.

[2] = system: C291S C322S (C/S) and C291A C322A (C/A) mutant p-tau; assay: aggregation of C/S or C/A mutant p-tau (ThS net change); type: biochemical; conditions: increasing doses of compound
Experimental: Figure 3 R-(−)-apomorphine and raloxifene are p-tau aggregation inhibitors (PTAIs) that act independently of the redox state of p-tau. (a) and (b) P-tau aggregation inhibition dose response curves of R-(−)-apomorphine and raloxifene. Aggregation of 6 µM of p-tau was done in the presence of the indicated concentrations of either compound. (c) Both R-(−)-apomorphine and raloxifene act independently of the two cysteine residues of p-tau. P-tau aggregation reactions with the C291S C322S (C/S) mutant p-tau were done in the presence of the indicated amounts of either compound. Shown are net changes of ThS over 16 h.
Many “hits” from prior tau-based HTS were non-selective redox modulators, due most likely to the susceptibility of unmodified tau fibrils to the oxidation of two cysteine residues of tau, C291 and C322. Because p-tau aggregation was not affected by changing the two cysteine residues to alanine or serine, we suspected that R-(−)-apomorphine and raloxifene would act independently of these two cysteine. […] By itself, the C/S p-tau gained 130 units of ThS fluorescence over the course of the aggregation reaction (blue column). With increasing doses of either compound, the net gain of ThS fluorescence decreased progressively. […]

[3] = system: SH-SY5Y cells; assay: cells; conditions: Homo sapiens, SH-SY5Y, read-out: EC50, concentration of compound to reduce p-tau cytotoxicity by 50%, SH-SY5Y, 0.8 µM p-tau
Experimental: (see below). […] PI is excluded by living cells, but diffuses into dead cells where it binds nucleic acid and emits fluorescence. FDA/PI differential staining thus provides a quantitative assessment of cellular viability. The blue curves in Fig. 4a,b depict the cellular viability after treatment with 0–0.8 µM of p-tau.
P-tau (without pre-aggregation) and compounds were added together to cells. Cell viability was quantified by FDA and PI differential staining 24 h later. […] Cellular viability was characterized as above and plotted against the compound concentration. Trend lines in panels (a)–(c) were obtained with the dose response curve fitting function of the software Origin (Origin Pro 8, OriginLab Corporation, Northampton, MA, USA). (d) Representative images of apoptotic cells after treatment of p-tau. SH-SY5Y cells were treated with 0.6 µM of p-tau for 12 h before harvesting for annexin V and PI staining. […] The percentage of apoptotic SH-SY5Y cells was quantified by annexin V and PI double staining of cells receiving 12 h of the indicated treatment under each column in the graph. Error bars are standard deviations; n = 3.
SH-SY5Y cells were treated with 0–0.6 µM of p-tau in conjunction with varying doses of nitrazepam, prazepam or devazepide. […] The red dotted lines indicate 50% viability. Curve fitting was done with the dose–response fitting function of the software Origin (version 8, OriginLab Inc.). The number in parentheses represents the concentration (in µM) of the indicated compound.
(§1) Cell viability assays were tested according to reference[60] with modifications. PTAIs were typically added to cells along with (Fig. 4) or after p-tau was added to cells (Fig. 5). For PTAEs, 10 × concentration of p-tau and the test compounds were assembled for pre-aggregation (without heparin or ThS) for 48 h before adding 10 µl to 100 µl of cells in 96-well plates. Twenty-four or 48 h after the addition of protein/compound, cells were trypsinized and transferred to microcentrifuge tubes, and pelleted at 1000 × g for 5 min at room temperature for FDA, PI, annexin V, and ThS staining. For PI/ThS double staining, cell pellets were resuspended in 20 mM Tris, pH7.4 buffer and incubated with 100 µM ThS for 5 min at room temperature. 5-µg/ml propidium iodide was then added to cell suspension for observation under a microscope.
Supplemental Figure 2. […] SH-SY5Y cells were treated with the indicated concentrations p-tau and compounds (in µM) for 20 hours before FDA/PI differential staining and microscopic quantification. […] 0.2 or 0.4 µM of p-tau and 30 µM of each compound were pre-incubated in aggregation reactions for 24 hours before the 20-hr cell treatment and cytotoxicity quantification. FDA and PI dual staining was performed to measure cellular viability. SH-SY5Y cells Compounds in panel (a) were added to cells along with p-tau without pre-incubation.

[4] = system: HEK293T cells; assay: intracellular fibril buildup and cell death after p-tau, ThS/PI double staining; type: cell-based; conditions: 15 µM compound added 24 h after p-tau
Experimental: Cells were harvested for ThS/PI staining after additional 24 or 48 h. ThS staining helped visualize intracellular fibrils. In this experiment, we used HEK293T cells to avoid potential interference from the endogenous tau. […] To gain a quantitative assessment, the numbers of the four possible combinations of ThS/PI staining were tallied.
(a) Experimental design. […] These images were from T24hr time point in panel (a) with 0.5 µM p-tau treatment. (c) Quantification of ThS and PI stainability among cells. Cells were categorized based on one of the four ThS/PI double-staining patterns. The total number of cells captured microscopically under each treatment was used as the denominator for the calculation of the proportion of each staining pattern, and expressed in this stacked column chart.
as §1

[5] = parameters: method as in PMID 21071476; conditions: cited from earlier work
[6] = system: 3xTg mice; conditions: cited from earlier work

T1 sequence (P10636 1-412 isoform P10636-7): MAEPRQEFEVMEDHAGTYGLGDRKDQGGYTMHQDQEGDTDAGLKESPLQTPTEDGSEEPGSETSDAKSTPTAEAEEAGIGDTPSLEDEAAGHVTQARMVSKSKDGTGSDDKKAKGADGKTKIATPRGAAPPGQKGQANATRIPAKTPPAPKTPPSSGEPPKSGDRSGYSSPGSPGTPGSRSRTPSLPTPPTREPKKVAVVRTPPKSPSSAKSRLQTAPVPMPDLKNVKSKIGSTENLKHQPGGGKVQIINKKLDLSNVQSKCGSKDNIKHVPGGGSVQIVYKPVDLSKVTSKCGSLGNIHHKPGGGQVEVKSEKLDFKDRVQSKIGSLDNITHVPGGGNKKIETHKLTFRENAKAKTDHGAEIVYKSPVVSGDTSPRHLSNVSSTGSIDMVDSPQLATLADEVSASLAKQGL

Q: For CN1CCc2cccc3c2[C@H]1Cc1ccc(O)c(O)c1-3 [Apomorphine, R-(−)-apomorphine hydrochloride], which EC50 [1] is on record?
A: The EC50 was 18.1 µM.

Q: And the “aggregation of C/A or C/S mutant p-tau” value [2]?
A: The value was “effectively inhibited”.

Q: What about the EC50 [3] of the same compound?
A: The EC50 was 2.9 µM.

Q: And the “live cells with cytoplasmic ThS fluorescence” value ([4]; 48-h samples)?
A: The value was 26%.

Q: What about the “PI (+) ThS (+) cells” value ([4]; harvested after additional 24 h) of the same compound?
A: The value was 61%.

Q: What about the “PI (+) ThS (+) cells” value ([4]; harvested after additional 48 h) of the same compound?
A: Its value is 44%.

Q: What about the “blood brain barrier passage” value [5] of the same compound?
A: Its value is “can pass the blood brain barrier”.

Q: What about the “memory in 3xTg mice” value [6] of the same compound?
A: Its value is “memory improvement”.
